Data set [1] relates to Rattus norvegicus. Put plainly: Antiinflammatory activity in Wistar rat assessed as inhibition of carrageenan-induced hind paw oedema at 20 mg/kg, po administered 30 mins before carrageenan challenge measured after 5 hrs by plethysmometer relative to control. The data set is classed as functional.
Data set [2] deals with Rattus norvegicus. The data set is described as follows: Antiinflammatory activity in Wistar rat assessed as inhibition of carrageenan-induced hind paw oedema at 20 mg/kg, po administered 30 mins before carrageenan challenge measured after 3 hrs by plethysmometer relative to control. It is filed as functional. (In the carrageenan paw model, swelling and tenderness develop within hours.)

The subject of data set [3] is Rattus norvegicus. The data set is described as follows: Gastrointestinal toxicity in Wistar rat assessed as ulcerogenic index at 60 mg/kg, po after 6 hrs relative to control. The data set is classed as organism-based. Also on record: dose 60 mg/kg, route oral. The following applies: in vivo.
Data set [4] deals with RAW264.7. Put plainly: Antiinflammatory activity in mouse RAW264.7 cells assessed as inhibition of LPS-induced TNFalpha production at 10 uM treated 30 mins before LPS challenge measured after 1 hr by ELISA relative to control. It is filed as functional. In general terms: In an ELISA, binding on a coated surface is turned into a signal by an enzyme label.
The subject of data set [5] is RAW264.7. Put plainly: Antiinflammatory activity in mouse RAW264.7 cells assessed as inhibition of LPS-induced TNFalpha production at 10 uM treated 30 mins before LPS challenge measured after 3 hrs by ELISA relative to control. The data set is classed as functional.
For data set [6], the system named is RAW264.7. Put plainly: Antiinflammatory activity in mouse RAW264.7 cells assessed as inhibition of LPS-induced TNFalpha production at 10 uM treated 30 mins before LPS challenge measured after 2 hrs by ELISA relative to control. It is filed as functional.
The subject of data set [7] is RAW264.7. Put plainly: Antiinflammatory activity in mouse RAW264.7 cells assessed as inhibition of LPS-induced TNFalpha production at 5 uM treated 30 mins before LPS challenge measured after 1 hr by ELISA relative to control. It is filed as functional.
The subject of data set [8] is RAW264.7. The data set is described as follows: Antiinflammatory activity in mouse RAW264.7 cells assessed as inhibition of LPS-induced TNFalpha production at 5 uM treated 30 mins before LPS challenge measured after 2 hrs by ELISA relative to control. It is filed as functional.
For data set [9], the system named is RAW264.7. Put plainly: Antiinflammatory activity in mouse RAW264.7 cells assessed as inhibition of LPS-induced TNFalpha production at 5 uM treated 30 mins before LPS challenge measured after 3 hrs by ELISA relative to control. The data set is classed as functional.
Data set [10] concerns the target T1, Prostaglandin G/H synthase 1 (Ovis aries, UniProt P05979).
T1 sequence (P05979 whole entry): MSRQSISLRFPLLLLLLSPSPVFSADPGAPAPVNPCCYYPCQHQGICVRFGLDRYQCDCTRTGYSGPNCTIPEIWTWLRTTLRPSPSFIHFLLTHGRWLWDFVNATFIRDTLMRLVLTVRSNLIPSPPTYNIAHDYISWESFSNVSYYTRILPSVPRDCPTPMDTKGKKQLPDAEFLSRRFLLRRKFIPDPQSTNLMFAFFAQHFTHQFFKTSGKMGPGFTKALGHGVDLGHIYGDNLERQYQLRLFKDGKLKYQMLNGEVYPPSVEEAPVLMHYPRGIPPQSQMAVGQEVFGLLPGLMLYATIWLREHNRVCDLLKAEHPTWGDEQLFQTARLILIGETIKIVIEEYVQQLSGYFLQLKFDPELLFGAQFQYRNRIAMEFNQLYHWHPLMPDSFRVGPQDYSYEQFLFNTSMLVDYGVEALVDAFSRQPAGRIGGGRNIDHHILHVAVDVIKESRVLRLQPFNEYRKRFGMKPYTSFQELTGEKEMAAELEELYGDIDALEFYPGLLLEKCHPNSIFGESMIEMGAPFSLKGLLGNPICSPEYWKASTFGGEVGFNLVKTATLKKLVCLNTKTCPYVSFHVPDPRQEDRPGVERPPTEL
Put plainly: Inhibition of ovine COX1.

By inhibition in vivo is commonly meant the share of the control response that was lost under treatment. As usually defined, the IC50 is the concentration at which inhibition is half-maximal. Higher therefore signals weaker potency in that assay.

For the molecule `COc1cc(/C=C/C(=O)c2c(OC)cc(C)c(Cl)c2C)ccc1O`, the inhibition in vivo at 20 mg/kg was found to be 25% in the data set with Rattus norvegicus [1] and 22.2% with Rattus norvegicus [2].
With `Cc1cc(O)c(C(=O)/C=C/c2ccccc2)c(C)c1Cl`, the inhibition in vivo at 20 mg/kg in the data set with Rattus norvegicus [1] was 82%; with Rattus norvegicus [2], 70%. Also, in the data set on Rattus norvegicus [3], the UI stood at 0.4 mm.
For the molecule `COc1ccc(/C=C/C(=O)c2c(O)cc(C)c(Cl)c2C)cc1`, the inhibition in vivo at 20 mg/kg was 55% in the data set on Rattus norvegicus [1] and 50% in the data set on Rattus norvegicus [2].
`Cc1cc(O)c(C(=O)/C=C/c2ccc(Cl)cc2)c(C)c1Cl`: the results for the inhibition in vivo at 20 mg/kg in the data set with Rattus norvegicus [1] and with Rattus norvegicus [2] were 36% and 41.6%, respectively.
Take `Cc1cc(O)c(C(=O)/C=C/c2ccccc2Cl)c(C)c1Cl`: the figures for the inhibition in vivo at 20 mg/kg in the data set with Rattus norvegicus [1] and in the data set on Rattus norvegicus [2] were 70% and 33%, respectively.
`COc1ccc(/C=C/C(=O)c2c(O)cc(C)c(Cl)c2C)cc1OC`: the results for the inhibition in vivo at 20 mg/kg with Rattus norvegicus [1] and in the data set on Rattus norvegicus [2] were 82% and 71%, respectively. In addition, the UI with Rattus norvegicus [3] is reported as 0.6 mm.
Consider `COc1cc(/C=C/C(=O)c2c(O)cc(C)c(Cl)c2C)cc(OC)c1OC`, for which the Activity in the data set on RAW264.7 [4] was 34.99 pg/mL; with RAW264.7 [5] it was 88.83 pg/mL; in the data set on RAW264.7 [6] it was 53.77 pg/mL; in the data set with RAW264.7 [7] it was 49.42 pg/mL; with RAW264.7 [8], 79.77 pg/mL; in the data set on RAW264.7 [9] it was 104.78 pg/mL. The figures for the inhibition in vivo at 20 mg/kg in the data set with Rattus norvegicus [1] and in the data set with Rattus norvegicus [2] were 90.6% and 91.7%, respectively. In the data set on Rattus norvegicus [3], the UI was 0.4 mm. The molecule also came in with an IC50 in data set [10] of 87.5 µM.
Consider `Cc1cc(O)c(C(=O)/C=C/c2cccc(O)c2)c(C)c1Cl`, for which the inhibition in vivo at 20 mg/kg in the data set on Rattus norvegicus [1] is 71%; with Rattus norvegicus [2] it was 83%. Besides, in the data set with Rattus norvegicus [3], the UI stood at 0.4 mm.
In the case of `Cc1cc(O)c(C(=O)/C=C/c2ccccc2[N+](=O)[O-])c(C)c1Cl`, the inhibition in vivo at 20 mg/kg in the data set on Rattus norvegicus [1] amounted to 14.3%; in the data set with Rattus norvegicus [2] it was 26.3%.
On the same counts, the results for `COc1cc(C)c(Cl)c(C)c1C(=O)/C=C/c1ccccc1` are 75% and 69.2%.
Consider `COc1ccc(/C=C/C(=O)c2c(OC)cc(C)c(Cl)c2C)cc1`, for which the inhibition in vivo at 20 mg/kg in the data set with Rattus norvegicus [1] was 12.5%; in the data set with Rattus norvegicus [2], 16.7%.
Consider `COc1cc(C)c(Cl)c(C)c1C(=O)/C=C/c1ccc(Cl)cc1`, for which the inhibition in vivo at 20 mg/kg came to 12.5% with Rattus norvegicus [1] and 22.2% with Rattus norvegicus [2].
For the molecule `COc1cc(C)c(Cl)c(C)c1C(=O)/C=C/c1ccccc1Cl`, the inhibition in vivo at 20 mg/kg with Rattus norvegicus [1] was found to be 12.5%; in the data set on Rattus norvegicus [2], 27.8%.
Turning to `COc1ccc(/C=C/C(=O)c2c(OC)cc(C)c(Cl)c2C)cc1OC`, the inhibition in vivo at 20 mg/kg in the data set with Rattus norvegicus [1] came out at 62%; in the data set on Rattus norvegicus [2], 81%. The UI in the data set with Rattus norvegicus [3] worked out at 0.16 mm.
With `COc1cc(/C=C/C(=O)c2c(OC)cc(C)c(Cl)c2C)cc(OC)c1OC`, the inhibition in vivo at 20 mg/kg came out at 62.5% in the data set on Rattus norvegicus [1] and 76.9% in the data set on Rattus norvegicus [2]. Further, in the data set on Rattus norvegicus [3], the UI came to 0.16 mm.
Consider `COc1cc(C)c(Cl)c(C)c1C(=O)/C=C/c1cccc(O)c1`, for which the inhibition in vivo at 20 mg/kg in the data set on Rattus norvegicus [1] was 75%; in the data set on Rattus norvegicus [2] it was 80.8%. The UI in the data set on Rattus norvegicus [3] is given as 0.33 mm.
`COc1cc(C)c(Cl)c(C)c1C(=O)/C=C/c1ccccc1O`: the inhibition in vivo at 20 mg/kg with Rattus norvegicus [1] was found to be 50%; with Rattus norvegicus [2], 33.3%.
Consider `COc1cc(C)c(Cl)c(C)c1C(=O)/C=C/c1cccc([N+](=O)[O-])c1`, for which the figures for the inhibition in vivo at 20 mg/kg with Rattus norvegicus [1] and in the data set with Rattus norvegicus [2] were 22.2% and 68.2%, respectively.
As to `COc1cc(C)c(Cl)c(C)c1C(=O)/C=C/c1ccc(N(C)C)cc1`, the inhibition in vivo at 20 mg/kg was 18.8% in the data set with Rattus norvegicus [1] and 22.2% with Rattus norvegicus [2].
For the molecule `COc1cc(C)c(Cl)c(C)c1C(=O)/C=C/c1ccccc1[N+](=O)[O-]`, the inhibition in vivo at 20 mg/kg is 66.7% in the data set with Rattus norvegicus [1] and 63.6% with Rattus norvegicus [2].
With `Cc1cc2c(c(C)c1Cl)C(=O)CC(c1ccccc1)O2` (stereo not drawn), the inhibition in vivo at 20 mg/kg with Rattus norvegicus [1] was determined as 27.7%; in the data set with Rattus norvegicus [2] it was 43.3%.
In the case of `COc1ccc(C2CC(=O)c3c(cc(C)c(Cl)c3C)O2)cc1` (stereo not drawn), the inhibition in vivo at 20 mg/kg in the data set on Rattus norvegicus [1] was 70%; with Rattus norvegicus [2] it was 51.1%.
As to `Cc1cc2c(c(C)c1Cl)C(=O)CC(c1ccc(Cl)cc1)O2` (stereo not drawn), the inhibition in vivo at 20 mg/kg with Rattus norvegicus [1] came to 70%; with Rattus norvegicus [2], 37.8%.
Consider `Cc1cc2c(c(C)c1Cl)C(=O)CC(c1ccccc1Cl)O2` (stereo not drawn), for which the inhibition in vivo at 20 mg/kg with Rattus norvegicus [1] was determined as 56%; in the data set with Rattus norvegicus [2] it was 22.2%.
For the molecule `COc1ccc(C2CC(=O)c3c(cc(C)c(Cl)c3C)O2)cc1OC` (stereo not drawn), the inhibition in vivo at 20 mg/kg in the data set on Rattus norvegicus [1] stood at 41.7%; in the data set on Rattus norvegicus [2], 48.5%.
`COc1cc(C2CC(=O)c3c(cc(C)c(Cl)c3C)O2)cc(OC)c1OC` (stereo not drawn): the values for the inhibition in vivo at 20 mg/kg in the data set on Rattus norvegicus [1] and in the data set with Rattus norvegicus [2] were 44.4% and 48.5%, respectively.
For the molecule `Cc1cc2c(c(C)c1Cl)C(=O)CC(c1cccc(O)c1)O2` (stereo not drawn), the inhibition in vivo at 20 mg/kg in the data set with Rattus norvegicus [1] amounted to 44.4%; in the data set with Rattus norvegicus [2], 46.4%.
As for `Cc1cc2c(c(C)c1Cl)C(=O)CC(c1ccccc1O)O2` (stereo not drawn), the inhibition in vivo at 20 mg/kg came out at 75% with Rattus norvegicus [1] and 58.8% in the data set on Rattus norvegicus [2].
Turning to `Cc1cc2c(c(C)c1Cl)C(=O)CC(c1cccc([N+](=O)[O-])c1)O2` (stereo not drawn), the figures for the inhibition in vivo at 20 mg/kg in the data set with Rattus norvegicus [1] and in the data set with Rattus norvegicus [2] were 51.4% and 53.6%, respectively.
Regarding `Cc1cc2c(c(C)c1Cl)C(=O)CC(c1ccc(N(C)C)cc1)O2` (stereo not drawn), the inhibition in vivo at 20 mg/kg came to 81% in the data set with Rattus norvegicus [1] and 82% in the data set on Rattus norvegicus [2]. In addition, the UI in the data set with Rattus norvegicus [3] was determined as 0 mm.
On to `COc1cc(C2CC(=O)c3c(cc(C)c(Cl)c3C)O2)ccc1O` (stereo not drawn), for which the values for the inhibition in vivo at 20 mg/kg with Rattus norvegicus [1] and in the data set on Rattus norvegicus [2] were 66% and 44.4%, respectively.
Take `Cc1cc2oc(-c3ccccc3)cc(=O)c2c(C)c1Cl`: the values for the inhibition in vivo at 20 mg/kg in the data set with Rattus norvegicus [1] and in the data set with Rattus norvegicus [2] were 16.2% and 26.3%, respectively.
For the molecule `COc1ccc(-c2cc(=O)c3c(C)c(Cl)c(C)cc3o2)cc1`, the results for the inhibition in vivo at 20 mg/kg in the data set on Rattus norvegicus [1] and with Rattus norvegicus [2] were 28.6% and 58%, respectively.
Consider `Cc1cc2oc(-c3ccc(Cl)cc3)cc(=O)c2c(C)c1Cl`, for which the inhibition in vivo at 20 mg/kg in the data set on Rattus norvegicus [1] was 22.9%; in the data set with Rattus norvegicus [2] it was 26.1%.
Turning to `Cc1cc2oc(-c3ccccc3Cl)cc(=O)c2c(C)c1Cl`, the inhibition in vivo at 20 mg/kg was found to be 57.1% in the data set on Rattus norvegicus [1] and 36.8% in the data set on Rattus norvegicus [2].
For `COc1ccc(-c2cc(=O)c3c(C)c(Cl)c(C)cc3o2)cc1OC`, the inhibition in vivo at 20 mg/kg was determined as 22.9% in the data set with Rattus norvegicus [1] and 43.1% in the data set on Rattus norvegicus [2].
Take `COc1cc(-c2cc(=O)c3c(C)c(Cl)c(C)cc3o2)cc(OC)c1OC`: the inhibition in vivo at 20 mg/kg in the data set with Rattus norvegicus [1] was 73.3%; in the data set on Rattus norvegicus [2], 68.4%. The UI in the data set with Rattus norvegicus [3] came to 0 mm.
Regarding `COc1ccc2c(c1)c(CC(=O)O)c(C)n2C(=O)c1ccc(Cl)cc1` [INDOMETHACIN], the inhibition in vivo at 20 mg/kg was determined as 86% with Rattus norvegicus [1] and 67% in the data set with Rattus norvegicus [2]. Further, the UI in the data set with Rattus norvegicus [3] is listed as 1.5 mm.

Source of the values: ChEMBL document CHEMBL2401627, “Synthesis of some novel chalcones, flavanones and flavones and evaluation of their anti-inflammatory activity” (Eur J Med Chem, 2013).
